According to PubChem BioAssay (NCI):
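Each compound was tested at five concentrations against cells in 96-well plates for 48 hours. GI50 marks 50% less growth. The concentration for full growth arrest is given as TGI.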

Legend:
Experiment in all cases: DTP human tumour cell line panel, 48 h
TK-10 renal = tested on: TK-10 renal
CCRF-CEM leukemia = tested on: CCRF-CEM leukemia
HS 578T breast = tested on: HS 578T breast
MDA-MB-435 = tested on: MDA-MB-435
M14 melanoma = tested on: M14 melanoma
EKVX NSCLC = tested on: EKVX NSCLC
BT-549 breast = tested on: BT-549 breast
NCI-H226 lung = tested on: NCI-H226 lung
UACC-257 melanoma = tested on: UACC-257 melanoma
RPMI-8226 leukemia = tested on: RPMI-8226 leukemia
UACC-62 melanoma = tested on: UACC-62 melanoma
786-0 renal = tested on: 786-0 renal
T-47D breast = tested on: T-47D breast
SN12C renal = tested on: SN12C renal
OVCAR-3 ovarian = tested on: OVCAR-3 ovarian
ACHN renal = tested on: ACHN renal
HL-60(TB) leukemia = tested on: HL-60(TB) leukemia
HCC-2998 colon = tested on: HCC-2998 colon
HOP-92 NSCLC = tested on: HOP-92 NSCLC
IGROV1 ovarian = tested on: IGROV1 ovarian
U251 CNS = tested on: U251 CNS
KM12 colon = tested on: KM12 colon
MOLT-4 leukemia = tested on: MOLT-4 leukemia
COLO 205 colon = tested on: COLO 205 colon
CAKI-1 renal = tested on: CAKI-1 renal
SNB-19 CNS = tested on: SNB-19 CNS
DU-145 prostate = tested on: DU-145 prostate
NCI-H522 lung = tested on: NCI-H522 lung
NCI-H460 lung = tested on: NCI-H460 lung
LOX IMVI melanoma = tested on: LOX IMVI melanoma
RXF 393 renal = tested on: RXF 393 renal
MALME-3M melanoma = tested on: MALME-3M melanoma
SK-OV-3 ovarian = tested on: SK-OV-3 ovarian
K-562 leukemia = tested on: K-562 leukemia
MCF7 breast = tested on: MCF7 breast
SNB-75 CNS = tested on: SNB-75 CNS
SK-MEL-5 melanoma = tested on: SK-MEL-5 melanoma
PC-3 prostate = tested on: PC-3 prostate
SF-295 CNS = tested on: SF-295 CNS
HCT-15 colon = tested on: HCT-15 colon
OVCAR-4 ovarian = tested on: OVCAR-4 ovarian
SF-268 CNS = tested on: SF-268 CNS
OVCAR-8 ovarian = tested on: OVCAR-8 ovarian
NCI-H23 lung = tested on: NCI-H23 lung
SK-MEL-2 melanoma = tested on: SK-MEL-2 melanoma
HOP-62 NSCLC = tested on: HOP-62 NSCLC
A549 NSCLC = tested on: A549 NSCLC
OVCAR-5 ovarian = tested on: OVCAR-5 ovarian
SW-620 colon = tested on: SW-620 colon
HCT-116 colon = tested on: HCT-116 colon
UO-31 renal = tested on: UO-31 renal
NCI/ADR-RES ovarian = tested on: NCI/ADR-RES ovarian

## COc1ccc2c(c1)nc1n2C(c2ccc(F)cc2)SC1 (centres undefined)
TK-10 renal
  GI50: 22.8 µM
  TGI: > 100 µM
CCRF-CEM leukemia
  GI50: 25.9 µM
  TGI: > 100 µM
HS 578T breast
  GI50: 28.3 µM
  TGI: 70.5 µM
MDA-MB-435
  GI50: 21.8 µM
  TGI: 59.5 µM
M14 melanoma
  GI50: 26.3 µM
  TGI: 83.5 µM
EKVX NSCLC
  GI50: 21.8 µM
  TGI: 61.9 µM
BT-549 breast
  GI50: 17.1 µM
  TGI: 42.1 µM
NCI-H226 lung
  GI50: 19.1 µM
  TGI: 54.1 µM
UACC-257 melanoma
  GI50: 28.7 µM
  TGI: > 100 µM
RPMI-8226 leukemia
  GI50: 14.8 µM
  TGI: 66.3 µM
UACC-62 melanoma
  GI50: 16.6 µM
  TGI: 34.9 µM
786-0 renal
  GI50: 60.8 µM
  TGI: > 100 µM
T-47D breast
  GI50: 14.4 µM
  TGI: 51 µM
SN12C renal
  GI50: 32.2 µM
  TGI: > 100 µM
OVCAR-3 ovarian
  GI50: 22.6 µM
  TGI: 65.4 µM
ACHN renal
  GI50: 20.8 µM
  TGI: 47.3 µM
HL-60(TB) leukemia
  GI50: 28.4 µM
  TGI: > 100 µM
HCC-2998 colon
  GI50: 18.4 µM
  TGI: 57.1 µM
HOP-92 NSCLC
  GI50: 23 µM
  TGI: > 100 µM
IGROV1 ovarian
  GI50: 26.5 µM
  TGI: 99.4 µM
U251 CNS
  GI50: 27.9 µM
  TGI: 83.7 µM
KM12 colon
  GI50: 23.3 µM
  TGI: 70.2 µM
MOLT-4 leukemia
  GI50: 26.8 µM
  TGI: > 100 µM
COLO 205 colon
  GI50: 16 µM
  TGI: 37.4 µM
CAKI-1 renal
  GI50: 26.2 µM
  TGI: 74.5 µM
SNB-19 CNS
  GI50: 36.5 µM
  TGI: > 100 µM
DU-145 prostate
  GI50: 15.2 µM
  TGI: > 100 µM
NCI-H522 lung
  GI50: 18.1 µM
  TGI: 66.3 µM
NCI-H460 lung
  GI50: 16.1 µM
  TGI: 67.7 µM
LOX IMVI melanoma
  GI50: 24.8 µM
  TGI: 61 µM
RXF 393 renal
  GI50: 82.9 µM
  TGI: > 100 µM
MALME-3M melanoma
  GI50: 23.5 µM
  TGI: 63 µM
SK-OV-3 ovarian
  GI50: 22.4 µM
  TGI: > 100 µM
K-562 leukemia
  GI50: 42.3 µM
  TGI: > 100 µM
MCF7 breast
  GI50: 18.5 µM
  TGI: > 100 µM
SNB-75 CNS
  GI50: 25.6 µM
  TGI: > 100 µM
SK-MEL-5 melanoma
  GI50: 15.4 µM
  TGI: 28.7 µM
PC-3 prostate
  GI50: 27.1 µM
  TGI: > 100 µM
SF-295 CNS
  GI50: 27.9 µM
  TGI: > 100 µM
HCT-15 colon
  GI50: 19.7 µM
  TGI: 42.8 µM
OVCAR-4 ovarian
  GI50: 33.8 µM
  TGI: > 100 µM
SF-268 CNS
  GI50: 33.8 µM
  TGI: > 100 µM
OVCAR-8 ovarian
  GI50: 17.2 µM
  TGI: 43.2 µM
NCI-H23 lung
  GI50: 18.9 µM
  TGI: > 100 µM
SK-MEL-2 melanoma
  GI50: 20.4 µM
  TGI: 65 µM
HOP-62 NSCLC
  GI50: 79.7 µM
  TGI: > 100 µM
A549 NSCLC
  GI50: 25.4 µM
  TGI: > 100 µM
OVCAR-5 ovarian
  GI50: 33.6 µM
  TGI: > 100 µM
SW-620 colon
  GI50: 32.3 µM
  TGI: > 100 µM
HCT-116 colon
  GI50: 30.8 µM
  TGI: > 100 µM
UO-31 renal
  GI50: 23.5 µM
  TGI: 67.9 µM
NCI/ADR-RES ovarian
  GI50: 20.7 µM
  TGI: 45.8 µM
